Structures are written as SMILES.

Data set [1] in a line: FAERS disproportionality analysis. As to conditions: for EB05 TdP / EB05 VA / EB05 VT: FAERS Nov 1997 to March 31, 2015, EB05 > 2 = signal; for EB05 TdP: torsades de pointes; for EB05 VA: ventricular arrhythmia; for EB05 VT: ventricular tachycardia; for EB05: Table 2, values correspond to EB05 TdP of Table 1.
Data set [2] is described as follows: Incidence of cardiac dysrhythmia in Truven Health MarketScan claims data. Format: in vivo, human. As to conditions: for CD incidence / Incidence Rate per 1,000 Years: Table 2, MarketScan 2009-2014; for CD incidence: cardiac dysrhythmia cases; for Incidence Rate per 1,000 Years: cardiac dysrhythmia; for Delta from Background Rate: in vivo.
For data set [3] the following is noted: cited from earlier work; for CredibleMeds: Table 2; for CredibleMeds Classification: Table 1, as of last access May 22, 2018.
For data set [4] the following is noted: Table 1; cited from earlier work.

As to `COc1ccc(CCN(C)CCCC(C#N)(c2ccc(OC)c(OC)c2)C(C)C)cc1OC` (stereo not drawn), in data set [1], the “EB05 TdP” value was found to be 3.426, the “EB05 VA” value came to 2.104 and the “EB05 VT” value worked out at 2.381.
Take `CC(C)NCC(O)c1ccc(NS(C)(=O)=O)cc1` (racemic) [DL-SOTALOL]: in data set [2], the CD incidence is recorded as 13,186, the “Incidence Rate per 1,000 Years” value was 124.65 per 1,000 Years and the “Delta from Background Rate” value turned out to be 101.65. For the same molecule, in data set [1], the “EB05 TdP” value is given as 70.355, the “EB05 VA” value was found to be 14.276, the “EB05 VT” value was determined as 18.029 and the EB05 is reported as 70.36.
As for `CCCCc1oc2ccccc2c1C(=O)c1cc(I)c(OCCN(CC)CC)c(I)c1` [AMIODARONE], in data set [2], the CD incidence is given as 21,788, the “Incidence Rate per 1,000 Years” value is 162.2 per 1,000 Years and the “Delta from Background Rate” value came to 139.2. In data set [3], the CredibleMeds entry is “risk of TdP”. The EB05 in data set [1] is 21.35.
Regarding `COc1ccc(CCN2CCC(Nc3nc4ccccc4n3Cc3ccc(F)cc3)CC2)cc1` [ASTEMIZOLE], in data set [4], the “CiPA Classification” value is listed as “intermediate”. Also, the “CredibleMeds Classification” value in data set [3] is given as “risk of TdP”. Further, in data set [1], the “EB05 TdP” value came to 18.549, the “EB05 VA” value was found to be 1.965 and the “EB05 VT” value is reported as 15.499.
As for `CC(C)COCC(CN(Cc1ccccc1)c1ccccc1)N1CCCC1` (stereo not drawn) [BEPRIDIL], the “CiPA Classification” value in data set [4] is “high”. Also, the “CredibleMeds Classification” value in data set [3] is given as “risk of TdP”. For the same molecule, in data set [1], the “EB05 TdP” value is 81.663, the “EB05 VA” value is 5.155 and the “EB05 VT” value stood at 38.276.
On to `CN(C)CCCN1c2ccccc2Sc2ccc(Cl)cc21` [CHLORPROMAZINE], for which the “CiPA Classification” value in data set [4] is “intermediate”. The “CredibleMeds Classification” value in data set [3] was “risk of TdP”. For the same molecule, in data set [1], the “EB05 TdP” value was 5.483, the “EB05 VA” value came out at 0.679 and the “EB05 VT” value is on record as 1.78.
With `COc1cc(N)c(Cl)cc1C(=O)NC1CCN(CCCOc2ccc(F)cc2)CC1OC` (stereo not drawn) [CISAPRIDE], in data set [4], the “CiPA Classification” value was “intermediate”. The “CredibleMeds Classification” value in data set [3] was “risk of TdP”. In addition, in data set [1], the “EB05 TdP” value was found to be 30.654, the “EB05 VA” value is listed as 5.117 and the “EB05 VT” value is given as 21.801.
As for `CN1CCN(C2=Nc3cc(Cl)ccc3Nc3ccccc32)CC1` [CLOZAPINE], in data set [1], the “EB05 TdP” value came to 0.191, the “EB05 VA” value is reported as 0.372 and the “EB05 VT” value turned out to be 0.291.
For `CN(C)CC(c1ccc(O)cc1)C1(O)CCCCC1` (stereo not drawn) [DESVENLAFAXINE], in data set [2], the CD incidence was 2,222, the “Incidence Rate per 1,000 Years” value is recorded as 8.26 per 1,000 Years and the “Delta from Background Rate” value is given as −14.74. The same molecule came in with an EB05 in data set [1] of 0.13.
In the case of `COc1ccc([C@@H]2Sc3ccccc3N(CCN(C)C)C(=O)[C@@H]2OC(C)=O)cc1` [DILTIAZEM], in data set [1], the “EB05 TdP” value came out at 2.62, the “EB05 VA” value is on record as 0.925 and the “EB05 VT” value is reported as 1.443.
As for `CN(CCOc1ccc(NS(C)(=O)=O)cc1)CCc1ccc(NS(C)(=O)=O)cc1` [DOFETILIDE], in data set [2], the CD incidence was 2,749, the “Incidence Rate per 1,000 Years” value was 157.58 per 1,000 Years and the “Delta from Background Rate” value is 134.58. Moreover, in data set [3], the CredibleMeds entry is “risk of TdP”. Further, in data set [1], the “EB05 TdP” value came out at 20.983, the “EB05 VA” value is reported as 6.235 and the EB05 stood at 20.98.
Consider `O=c1[nH]c2ccccc2n1CCCN1CCC(n2c(=O)[nH]c3cc(Cl)ccc32)CC1` [DOMPERIDONE], for which, in data set [1], the “EB05 TdP” value is listed as 18.85, the “EB05 VA” value came to 1.455 and the “EB05 VT” value amounted to 1.468.
As for `O=C(CCCN1CC=C(n2c(=O)[nH]c3ccccc32)CC1)c1ccc(F)cc1` [DROPERIDOL], the “CiPA Classification” value in data set [4] is recorded as “intermediate”. For the same molecule, in data set [3], the “CredibleMeds Classification” value is “risk of TdP”. In addition, in data set [1], the “EB05 TdP” value was 19.454, the “EB05 VA” value stood at 2.899 and the “EB05 VT” value is listed as 4.564.
As for `O=C(NCC1CCCCN1)c1cc(OCC(F)(F)F)ccc1OCC(F)(F)F` (stereo not drawn) [FLECAINIDE], in data set [2] (compared with the aggregated value, subgroups by age, gender, comorbidity index), the “rate of CD incidence, each patient subgroup” value is more than 23.0. Also, in data set [1], the “EB05 VA” value is 4.123 and the “EB05 VT” value was 20.567.
On to `CCCCCCCN(CC)CCCC(O)c1ccc(NS(C)(=O)=O)cc1` (stereo not drawn) [IBUTILIDE], for which, in data set [4], the “CiPA Classification” value is on record as “high”. Further, the “CredibleMeds Classification” value in data set [3] is listed as “risk of TdP”. Further, in data set [1], the “EB05 TdP” value is 218.45, the “EB05 VA” value turned out to be 2.901 and the “EB05 VT” value is on record as 101.022.
On to `CCOC(=O)N1CCC(=C2c3ccc(Cl)cc3CCc3cccnc32)CC1` [LORATADINE], for which, in data set [2], the CD incidence is 2,016, the “Incidence Rate per 1,000 Years” value is 13.07 per 1,000 Years and the “Delta from Background Rate” value was −9.93. The “CiPA Classification” value in data set [4] is given as “very low”. Also, in data set [1], the “EB05 TdP” value was found to be 4.873, the “EB05 VA” value is 0.583, the “EB05 VT” value is 3.043 and the EB05 stood at 4.87.
Regarding `CCC(=O)C(CC(C)N(C)C)(c1ccccc1)c1ccccc1` (stereo not drawn) [METHADONE], in data set [2], the CD incidence is reported as 1,662, the “Incidence Rate per 1,000 Years” value is recorded as 19.73 per 1,000 Years and the “Delta from Background Rate” value is given as −3.27. Also, the CredibleMeds entry in data set [3] was “risk of TdP”. Moreover, in data set [1], the “EB05 TdP” value came out at 36.408, the “EB05 VA” value is on record as 1.87, the “EB05 VT” value came to 3.998 and the EB05 was found to be 36.41.
Take `COCCc1ccc(OCC(O)CNC(C)C)cc1` (stereo not drawn) [METOPROLOL]: in data set [1], the “EB05 TdP” value stood at 3.176, the “EB05 VA” value came out at 1.955 and the “EB05 VT” value is on record as 3.318.
Turning to `COC(=O)C1=C(C)NC(C)=C(C(=O)OC)C1c1ccccc1[N+](=O)[O-]` [NIFEDIPINE], the “EB05 VT” value in data set [1] came to 0.42.
For the molecule `Cc1nccn1CC1CCc2c(c3ccccc3n2C)C1=O` (stereo not drawn) [ONDANSETRON], the “CiPA Classification” value in data set [4] is “intermediate”. The “CredibleMeds Classification” value in data set [3] is recorded as “risk of TdP”. In addition, in data set [1], the “EB05 TdP” value is listed as 15.333, the “EB05 VA” value amounted to 1.281 and the “EB05 VT” value is 6.395.
As for `Cc1nc2n(c(=O)c1CCN1CCC(c3noc4cc(F)ccc34)CC1)CCCC2O` (stereo not drawn) [PALIPERIDONE], in data set [2], the CD incidence is listed as 119, the “Incidence Rate per 1,000 Years” value is reported as 10.13 per 1,000 Years and the “Delta from Background Rate” value is given as −12.87. The CredibleMeds entry in data set [3] is listed as “possible risk of TdP”. Further, the EB05 in data set [1] was 0.57.
With `O=c1[nH]c2ccccc2n1C1CCN(CCCC(c2ccc(F)cc2)c2ccc(F)cc2)CC1` [PIMOZIDE], the “CiPA Classification” value in data set [4] was “intermediate”. Besides, the “CredibleMeds Classification” value in data set [3] is given as “risk of TdP”. In data set [1], the “EB05 TdP” value worked out at 17.093, the “EB05 VA” value is 0.25 and the “EB05 VT” value was found to be 2.332.
For `CCCNCC(O)COc1ccccc1C(=O)CCc1ccccc1` (stereo not drawn) [PROPAFENONE], in data set [2], the CD incidence is given as 6,643, the “Incidence Rate per 1,000 Years” value is listed as 135.17 per 1,000 Years and the “Delta from Background Rate” value is 112.17. This molecule also gave an EB05 in data set [1] of 3.38.
For `C=C[C@H]1C[N@@]2CC[C@H]1C[C@@H]2[C@@H](O)c1ccnc2ccc(OC)cc12` [QUINIDINE], in data set [2], the CD incidence is 421, the “Incidence Rate per 1,000 Years” value is 87.75 per 1,000 Years and the “Delta from Background Rate” value is on record as 64.75. Also, in data set [3], the CredibleMeds entry is “risk of TdP”. Further, in data set [1], the “EB05 TdP” value turned out to be 35.667, the “EB05 VA” value is reported as 2.768, the “EB05 VT” value is recorded as 12.296 and the EB05 is listed as 35.67.
Turning to `COc1ccccc1OCC(O)CN1CCN(CC(=O)Nc2c(C)cccc2C)CC1` (stereo not drawn) [RANOLAZINE], the “CiPA Classification” value in data set [4] is listed as “very low”. The “CredibleMeds Classification” value in data set [3] is reported as “conditional risk of TdP”. Also, in data set [1], the “EB05 TdP” value is on record as 22.444, the “EB05 VA” value turned out to be 0.205 and the “EB05 VT” value was determined as 4.375.
Turning to `Cc1nc2n(c(=O)c1CCN1CCC(c3noc4cc(F)ccc34)CC1)CCCC2` [RISPERIDONE], in data set [2], the CD incidence is 4,066, the “Incidence Rate per 1,000 Years” value was 18.47 per 1,000 Years and the “Delta from Background Rate” value is on record as −4.53. Moreover, the “CiPA Classification” value in data set [4] is “intermediate”. In addition, in data set [3], the “CredibleMeds Classification” value is “possible risk of TdP” and the CredibleMeds entry was “possible risk of TdP”. For the same molecule, in data set [1], the “EB05 TdP” value is 1.257, the “EB05 VA” value came out at 0.543, the “EB05 VT” value came out at 0.706 and the EB05 is reported as 1.26.
As for `CC/C(=C(\c1ccccc1)c1ccc(OCCN(C)C)cc1)c1ccccc1` [TAMOXIFEN], in data set [1], the “EB05 TdP” value came out at 0.077, the “EB05 VA” value is reported as 0.06 and the “EB05 VT” value came to 0.172.
Consider `CC(C)(C)c1ccc(C(O)CCCN2CCC(C(O)(c3ccccc3)c3ccccc3)CC2)cc1` (stereo not drawn) [TERFENADINE], for which the “CiPA Classification” value in data set [4] is “intermediate”. Also, the “CredibleMeds Classification” value in data set [3] is given as “risk of TdP”. For the same molecule, in data set [1], the “EB05 TdP” value came out at 24.417, the “EB05 VA” value was 3.085 and the “EB05 VT” value was 9.397.
For the molecule `COc1cc2c(Nc3ccc(Br)cc3F)ncnc2cc1OCC1CCN(C)CC1` [VANDETANIB], the “CiPA Classification” value in data set [4] is recorded as “high”. The “CredibleMeds Classification” value in data set [3] is “risk of TdP”. In addition, in data set [1], the “EB05 TdP” value was 0.546.

These data come from article PMC7659582 (Cell Reports Medicine, 2020).
